The record followed here is US9586951B2 (FUJIFILM Corporation, priority 2013, dated 2017).

Each structure is given as a SMILES string. Bounds are passed on as bounds.

The target of one experiment is T1, ATM (Homo sapiens, UniProt Q13315).
T1 construct: detecting phosphorylation of Chk2 in a human non-small cell lung cancer cell line NCI-H460 (ATCC company); host or cells: NCI-H460 human non-small cell lung cancer cells
As to the kind of experiment: ATM inhibition test (phosphorylation of Chk2 generated by ionizing radiation, AlphaScreen SureFire). The class given is cell-based. To be noted: phosphorylated Chk2 in NCI-H460 cells, ionizing radiation 8Gy, 1 hour after test compound treatment; read-out: ATM inhibitory activity. Put shortly:
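Human NCI-H460 lung cancer cells were treated with compound for 1 h, then irradiated at 8Gy and incubated 1 h at 37° C. Phospho-Chk2 was quantified by AlphaScreen SureFire; inhibition % was normalised between irradiated untreated and non-irradiated untreated wells.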
In general terms: Alpha assays give light when donor and acceptor beads are brought close together.

The subject of experiment [1] is human non-small cell lung cancer cell line NCI-H460. Description: Cell proliferation inhibition test by sensitivity-enhancing to ionizing radiation (Cell Titer Glo). In kind it is cell-based. To be noted: concentration in which SER became 2, NCI-H460 cells, ionizing radiation 2 Gy, cultured 120 hour. Put shortly:
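Radiosensitisation measured as SER, a ratio of Cell Titer Glo luminescence in irradiated vs unirradiated plates relative to DMSO; SER2, the concentration yielding SER 2, came from sigmoidal regression. Compound (0.1% DMSO) was given 24 h post-seeding, 2 Gy applied 30 min later, then 120 hour culture at 37° C.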

T1 sequence (Q13315 whole entry): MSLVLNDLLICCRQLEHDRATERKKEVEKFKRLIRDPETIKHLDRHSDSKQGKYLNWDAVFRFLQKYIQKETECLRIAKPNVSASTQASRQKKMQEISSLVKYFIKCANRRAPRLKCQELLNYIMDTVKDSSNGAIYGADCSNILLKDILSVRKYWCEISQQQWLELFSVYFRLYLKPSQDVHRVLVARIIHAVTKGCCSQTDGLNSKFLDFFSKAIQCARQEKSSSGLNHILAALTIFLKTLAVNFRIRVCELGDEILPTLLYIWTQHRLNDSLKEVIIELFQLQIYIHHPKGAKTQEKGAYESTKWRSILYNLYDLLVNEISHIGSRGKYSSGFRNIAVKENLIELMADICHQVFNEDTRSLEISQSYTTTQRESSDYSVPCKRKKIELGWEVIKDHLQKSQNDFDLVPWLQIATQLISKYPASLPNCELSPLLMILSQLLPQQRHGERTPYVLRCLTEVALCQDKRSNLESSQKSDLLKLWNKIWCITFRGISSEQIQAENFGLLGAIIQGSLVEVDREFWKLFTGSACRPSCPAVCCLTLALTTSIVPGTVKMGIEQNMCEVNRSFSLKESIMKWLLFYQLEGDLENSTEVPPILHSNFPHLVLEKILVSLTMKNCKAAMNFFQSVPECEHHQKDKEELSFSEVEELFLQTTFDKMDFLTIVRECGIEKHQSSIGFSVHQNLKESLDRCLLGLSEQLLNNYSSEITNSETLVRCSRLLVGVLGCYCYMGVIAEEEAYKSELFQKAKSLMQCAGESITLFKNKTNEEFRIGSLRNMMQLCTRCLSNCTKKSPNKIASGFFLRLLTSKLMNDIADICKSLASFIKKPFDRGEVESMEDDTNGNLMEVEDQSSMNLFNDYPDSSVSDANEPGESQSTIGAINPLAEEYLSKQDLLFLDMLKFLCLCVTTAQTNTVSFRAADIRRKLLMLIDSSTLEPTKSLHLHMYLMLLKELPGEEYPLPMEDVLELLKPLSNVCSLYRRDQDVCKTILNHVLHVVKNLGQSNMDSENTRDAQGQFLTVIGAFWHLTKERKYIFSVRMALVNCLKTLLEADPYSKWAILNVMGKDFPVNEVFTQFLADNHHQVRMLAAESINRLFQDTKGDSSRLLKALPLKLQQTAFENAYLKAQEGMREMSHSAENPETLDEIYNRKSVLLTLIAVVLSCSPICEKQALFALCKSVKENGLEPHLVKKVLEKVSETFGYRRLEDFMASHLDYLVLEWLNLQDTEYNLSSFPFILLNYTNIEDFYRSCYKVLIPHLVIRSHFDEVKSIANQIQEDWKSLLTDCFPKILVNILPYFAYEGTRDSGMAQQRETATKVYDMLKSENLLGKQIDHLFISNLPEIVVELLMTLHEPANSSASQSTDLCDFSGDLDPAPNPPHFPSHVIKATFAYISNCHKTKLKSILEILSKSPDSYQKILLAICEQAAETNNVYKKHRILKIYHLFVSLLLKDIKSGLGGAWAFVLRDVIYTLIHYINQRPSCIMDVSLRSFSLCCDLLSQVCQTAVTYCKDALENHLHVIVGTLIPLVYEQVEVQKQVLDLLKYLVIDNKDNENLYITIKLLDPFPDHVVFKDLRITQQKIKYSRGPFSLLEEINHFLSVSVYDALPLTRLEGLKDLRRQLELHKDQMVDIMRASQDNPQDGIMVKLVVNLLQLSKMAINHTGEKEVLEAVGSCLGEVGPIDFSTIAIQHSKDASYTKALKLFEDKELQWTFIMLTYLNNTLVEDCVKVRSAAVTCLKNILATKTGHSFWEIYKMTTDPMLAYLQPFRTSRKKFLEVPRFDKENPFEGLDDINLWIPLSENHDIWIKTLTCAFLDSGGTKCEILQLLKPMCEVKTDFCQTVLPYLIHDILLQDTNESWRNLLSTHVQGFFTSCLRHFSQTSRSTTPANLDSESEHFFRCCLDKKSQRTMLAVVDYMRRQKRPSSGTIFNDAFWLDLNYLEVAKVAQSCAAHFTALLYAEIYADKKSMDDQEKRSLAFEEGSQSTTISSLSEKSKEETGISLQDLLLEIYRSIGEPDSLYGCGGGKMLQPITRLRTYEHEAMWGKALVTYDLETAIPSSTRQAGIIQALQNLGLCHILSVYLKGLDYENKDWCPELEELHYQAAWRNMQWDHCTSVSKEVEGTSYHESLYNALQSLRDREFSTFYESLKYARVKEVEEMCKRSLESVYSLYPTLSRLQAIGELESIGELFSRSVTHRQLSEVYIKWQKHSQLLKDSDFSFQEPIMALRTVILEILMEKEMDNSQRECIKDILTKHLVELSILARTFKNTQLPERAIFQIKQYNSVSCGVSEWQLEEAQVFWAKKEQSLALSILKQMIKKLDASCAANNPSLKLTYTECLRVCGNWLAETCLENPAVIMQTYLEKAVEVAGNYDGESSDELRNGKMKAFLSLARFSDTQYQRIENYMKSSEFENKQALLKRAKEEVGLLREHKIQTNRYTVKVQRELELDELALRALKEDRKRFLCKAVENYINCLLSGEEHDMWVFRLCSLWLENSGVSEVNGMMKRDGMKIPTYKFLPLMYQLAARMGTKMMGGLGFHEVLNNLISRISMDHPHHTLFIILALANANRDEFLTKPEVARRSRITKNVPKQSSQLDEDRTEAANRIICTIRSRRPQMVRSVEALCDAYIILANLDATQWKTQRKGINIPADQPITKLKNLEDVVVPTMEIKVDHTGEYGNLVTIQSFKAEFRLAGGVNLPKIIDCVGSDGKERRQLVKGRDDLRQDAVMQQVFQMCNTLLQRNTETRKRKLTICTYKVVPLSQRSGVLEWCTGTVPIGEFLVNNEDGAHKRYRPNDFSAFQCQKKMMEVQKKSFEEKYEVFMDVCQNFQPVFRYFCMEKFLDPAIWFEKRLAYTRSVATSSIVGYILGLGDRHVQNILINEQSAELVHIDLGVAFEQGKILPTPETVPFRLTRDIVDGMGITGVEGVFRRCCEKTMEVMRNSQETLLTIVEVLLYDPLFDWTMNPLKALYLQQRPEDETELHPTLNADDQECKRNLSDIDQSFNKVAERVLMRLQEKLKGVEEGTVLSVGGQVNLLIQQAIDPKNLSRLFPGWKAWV

Turning to `COc1cc(CNc2ccc3c(c2)Sc2cccc(-c4cc(N5CCOCC5)cc(=O)[nH]4)c2O3)cnc1OC` [Example 4-4-12, 6-(8-(((5,6-Dimethoxypyridin-3-yl)methyl)amino)phenoxathiin-4-yl)-4-morpholino pyridin-2(1H)-one], at ATM, the IC50 was less than 0.1 µM. Further, the SER2 (concentration at which the radiation sensitivity-enhancement ratio reaches 2) in experiment [1] (Homo sapiens, NCI-H460, 120 h) lay within 100 to 500 nM.

For the molecule `C=C(C)c1cncc(CNc2ccc3c(c2)Cc2cccc(-c4cc(N5CCOCC5)cc(=O)[nH]4)c2O3)c1` [Example 2-14-10, 4-Morpholino-6-(7-(((5-(prop-1-en-2-yl)pyridin-3-yl)methyl)amino)-9H-xanthen-4-yl)pyridin-2 (1H)-one], the IC50 on ATM is less than 0.1 µM. For the same molecule, the SER2 (concentration at which the radiation sensitivity-enhancement ratio reaches 2) in experiment [1] (Homo sapiens, NCI-H460, 120 h) was in the range of 100 to 500 nM.

As to `CN(C)c1ncc(CNc2ccc3c(c2)Sc2cccc(-c4cc(N5CCOCC5)cc(=O)[nH]4)c2S3)cn1` [Example 1-12-11, 6-(7-(((2-(Dimethylamino)pyrimidin-5-yl)methyl)amino)thianthren-1-yl)-4-morpholino pyridin-2(1H)-one], the IC50 on ATM was less than 0.1 µM. Further, in experiment [1] (Homo sapiens, NCI-H460, 120 h), the SER2 (concentration at which the radiation sensitivity-enhancement ratio reaches 2) was 100 to 500 nM.

With `Cc1cnc(C(C)Nc2ccc3c(c2)Cc2cccc(-c4cc(N5CCOCC5)cc(=O)[nH]4)c2O3)cn1` (stereo not drawn) [Example 2-14-24, 6-(7-((1-(5-Methylpyrazin-2-yl)ethyl)amino)-9H-xanthen-4-yl)-4-morpholino pyridin-2(1H)-one], the IC50 at ATM was less than 0.1 µM. The SER2 (concentration at which the radiation sensitivity-enhancement ratio reaches 2) in experiment [1] (Homo sapiens, NCI-H460, 120 h) lay in the range of 100 to 500 nM.

In the case of `COc1cncc(CNc2ccc3c(c2)Sc2cccc(-c4cc(N5CCOCC5)cc(=O)[nH]4)c2O3)c1` [Example 4-8-1, 6-(8-(((5-Methoxypyridin-3-yl)methyl)amino)phenoxathiin-4-yl)-4-morpholinopyridin-2(1H)-one], the IC50 on ATM is less than 0.1 µM. For the same molecule, the SER2 (concentration at which the radiation sensitivity-enhancement ratio reaches 2) in experiment [1] (Homo sapiens, NCI-H460, 120 h) is 100 to 500 nM.

For `O=c1cc(N2CCOCC2)cc(-c2cccc3c2Sc2ccc(NC4CCCN(Cc5cccnc5)C4)cc2S3)[nH]1` (stereo not drawn) [Example 1-24-2, 4-Morpholine-6-(7-((1-(pyridin-3-ylmethyl)piperidin-3-yl)amino)thianthren-1-yl)pyridin-2 (1H)-one], the IC50 at ATM is less than 0.1 µM. The SER2 (concentration at which the radiation sensitivity-enhancement ratio reaches 2) in experiment [1] (Homo sapiens, NCI-H460, 120 h) was in the range of 100 to 500 nM.

In the case of `COCCOCC(Nc1ccc2c(c1)Sc1cccc(-c3cc(N4CCOCC4)cc(=O)[nH]3)c1S2)c1nccc(C)n1` (stereo not drawn) [Example 1-12-97, 6-(7-((2-(2-Methoxyethoxy)-1-(4-methylpyrimidin-2-yl)ethyl)amino)thianthren-1-yl)-4-morpholino pyridin-2(1H)-one], on ATM, the IC50 was less than 0.1 µM. In experiment [1] (Homo sapiens, NCI-H460, 120 h), the SER2 (concentration at which the radiation sensitivity-enhancement ratio reaches 2) fell in the range of 100 to 500 nM.

For `Cc1cccc(C(C)Nc2ccc3c(c2)Sc2cccc(-c4cc(N5CCOCC5)cc(=O)[nH]4)c2S3)n1` (single isomer, unassigned) [Example 1-12-136-2, 6-(7-((1-(6-methylpyridin-2-yl)ethyl)amino)thianthren-1-yl)-4-morpholinopyridin-2(1H)-one], the IC50 on ATM was less than 0.1 µM. Further, in experiment [1], the SER2 (concentration at which the radiation sensitivity-enhancement ratio reaches 2) is 100 to 500 nM.

On to `O=c1cc(N2CCOCC2)cc(-c2cccc3c2Sc2ccc(NC4CCCC4N4CCOCC4)cc2S3)[nH]1` (racemic) [Example 1-16-1-1, 4-morpholino-6-(7-((2-morpholinocyclopentyl)amino)thianthren-1-yl)pyridin-2(1H)-one], for which the IC50 at ATM was less than 0.1 µM. Moreover, in experiment [1] (Homo sapiens, NCI-H460, 120 h), the SER2 (concentration at which the radiation sensitivity-enhancement ratio reaches 2) was less than 100 nM.

On to `CNc1ncc(CNc2ccc3c(c2)Cc2cccc(-c4cc(N5CCOCC5)cc(=O)[nH]4)c2O3)cn1` [Example 2-2-16, 6-(7-(((2-(Methylamino)pyrimidin-5-yl)methyl)amino)-9H-xanthen-4-yl)-4-morpholino pyridin-2(1H)-one], for which the IC50 at ATM lay in the range of 0.1 to 0.5 µM. Besides, the SER2 (concentration at which the radiation sensitivity-enhancement ratio reaches 2) in experiment [1] (Homo sapiens, NCI-H460, 120 h) lay in the range of 100 to 500 nM.

As for `Cc1cncc(C(C)Nc2ccc3c(c2)Sc2cccc(-c4cc(N5CCOCC5)cc(=O)[nH]4)c2S3)c1` (stereo not drawn) [Example 1-12-50, 6-(7-((1-(5-Methylpyridin-3-yl)ethyl)amino)thianthren-1-yl)-4-morpholino pyridin-2 (1H)-one], on ATM, the IC50 was less than 0.1 µM. In addition, the SER2 (concentration at which the radiation sensitivity-enhancement ratio reaches 2) in experiment [1] (Homo sapiens, NCI-H460, 120 h) lay within 100 to 500 nM.

As to `CC(Nc1ccc2c(c1)Sc1cccc(-c3cc(N4CCOCC4)cc(=O)[nH]3)c1S2)c1cc(C#N)ncn1` (single isomer, unassigned) [Example 1-12-146-1, 6-(1-((6-(4-morpholino-6-oxo-1,6-dihydropyridin-2-yl)thianthren-2-yl)amino)ethyl)pyrimidine-4-carbonitrile], the IC50 on ATM was less than 0.1 µM. In addition, the SER2 (concentration at which the radiation sensitivity-enhancement ratio reaches 2) in experiment [1] (Homo sapiens, NCI-H460, 120 h) was in the range of 100 to 500 nM.

Consider `Cc1ccnc(C(C)Nc2ccc3c(c2)Sc2cccc(-c4cc(N5CCOCC5)cc(=O)[nH]4)c2S3)n1` (single isomer, unassigned) [Example 1-12-144-1, 6-(7-((1-(4-methylpyrimidin-2-yl)ethyl)amino)thianthren-1-yl)-4-morpholinopyridin-2(1H)-one], for which the IC50 on ATM is less than 0.1 µM. Also, the SER2 (concentration at which the radiation sensitivity-enhancement ratio reaches 2) in experiment [1] (Homo sapiens, NCI-H460, 120 h) was less than 100 nM.

For the molecule `CCOc1cncc(CNc2ccc3c(c2)Cc2cccc(-c4cc(N5CCOCC5)cc(=O)[nH]4)c2O3)c1` [Example 2-2-48, 6-(7-(((5-Ethoxypyridin-3-yl)methyl)amino)-9H-xanthen-4-yl)-4-morpholino pyridin-2(1H)-one], the IC50 on ATM was less than 0.1 µM. The SER2 (concentration at which the radiation sensitivity-enhancement ratio reaches 2) in experiment [1] (Homo sapiens, NCI-H460, 120 h) fell in the range of 500 to 2000 nM.

With `CCN(C)CCC(Nc1ccc2c(c1)Sc1cccc(-c3cc(N4CCOCC4)cc(=O)[nH]3)c1S2)c1cccc(C)n1` (stereo not drawn) [Example 1-23-1, 6-(7-((3-(ethyl(methyl)amino)-1-(6-methylpyridin-2-yl)propyl)amino)thianthren-1-yl)-4-morpholinopyridin-2(1H)-one], the IC50 on ATM is less than 0.1 µM. Further, the SER2 (concentration at which the radiation sensitivity-enhancement ratio reaches 2) in experiment [1] (Homo sapiens, NCI-H460, 120 h) was in the range of 100 to 500 nM.

On to `Cc1ccnc(CNc2ccc3c(c2)Sc2cccc(-c4cc(N5CCOCC5)cc(=O)[nH]4)c2O3)c1` [Example 4-8-19, 6-(8-(((4-Methylpyridin-2-yl)methyl)amino)phenoxathiin-4-yl)-4-morpholino pyridin-2(1H)-one], for which the IC50 on ATM was less than 0.1 µM. The SER2 (concentration at which the radiation sensitivity-enhancement ratio reaches 2) in experiment [1] (Homo sapiens, NCI-H460, 120 h) was 100 to 500 nM.

As to `CCCN1CCC(Nc2ccc3c(c2)Cc2cccc(-c4cc(N5CCOCC5)cc(=O)[nH]4)c2O3)CC1` [Example 2-28-32, 4-Morpholino-6-(7-((1-propylpiperidin-4-yl)amino)-9H-xanthen-4-yl) pyridin-2(1H)-one], the IC50 at ATM was less than 0.1 µM. In addition, the SER2 (concentration at which the radiation sensitivity-enhancement ratio reaches 2) in experiment [1] (Homo sapiens, NCI-H460, 120 h) was in the range of 500 to 2000 nM.

In the case of `O=c1cc(N2CCOCC2)cc(-c2cccc3c2Oc2ccc(NCc4cncc(Cl)n4)cc2C3)[nH]1` [Example 2-13-1, 6-(7-(((6-chloropyrazin-2-yl)methyl)amino)-9H-xanthen-4-yl)-4-morpholinopyridin-2(1H)-one], the IC50 at ATM was in the range of 0.1 to 0.5 µM. The SER2 (concentration at which the radiation sensitivity-enhancement ratio reaches 2) in experiment [1] (Homo sapiens, NCI-H460, 120 h) is 500 to 2000 nM.

For `Cc1cccc(CNc2ccc3c(c2)Cc2ccc(F)c(-c4cc(N5CCOCC5)cc(=O)[nH]4)c2O3)n1` [Example 2-46-4, 6-(3-Fluoro-7-(((6-methylpyridin-2-yl)methyl)amino)-9H-xanthen-4-yl)-4-morpholinopyridin-2(1H)-one], at ATM, the IC50 was less than 0.1 µM. Also, the SER2 (concentration at which the radiation sensitivity-enhancement ratio reaches 2) in experiment [1] (Homo sapiens, NCI-H460, 120 h) was 100 to 500 nM.

For `COc1cccc(CNc2ccc3c(c2)Sc2cccc(-c4cc(N5CCOCC5)cc(=O)[nH]4)c2O3)n1` [Example 4-8-18, 6-(8-(((6-Methoxypyridin-2-yl)methyl)amino)phenoxathiin-4-yl)-4-morpholino pyridin-2 (1H)-one], at ATM, the IC50 is less than 0.1 µM. In addition, in experiment [1] (Homo sapiens, NCI-H460, 120 h), the SER2 (concentration at which the radiation sensitivity-enhancement ratio reaches 2) fell in the range of 100 to 500 nM.

With `Cc1ccc(C(Nc2ccc3c(c2)Sc2cccc(-c4cc(N5CCOCC5)cc(=O)[nH]4)c2S3)C2CC(N(C)C)C2)nc1` (single isomer, unassigned) [Example 1-50-9, 6-(7-(((3-(Dimethylamino)cyclobutyl)(5-methylpyridin-2-yl)methyl)amino)thianthren-1-yl)-4-morpholino pyridin-2 (1H)-one], the IC50 on ATM is less than 0.1 µM. Also, the SER2 (concentration at which the radiation sensitivity-enhancement ratio reaches 2) in experiment [1] is less than 100 nM.

Turning to `COCC(CN1CCOCC1)Nc1ccc2c(c1)Sc1cccc(-c3cc(N4CCOCC4)cc(=O)[nH]3)c1S2` (single isomer, unassigned) [Example 1-17-1-2, 6-(7-((1-methoxy-3-morpholinopropan-2-yl)amino)thianthren-1-yl)-4-morpholinopyridin-2(1H)-one], at ATM, the IC50 was less than 0.1 µM. Further, the SER2 (concentration at which the radiation sensitivity-enhancement ratio reaches 2) in experiment [1] (Homo sapiens, NCI-H460, 120 h) was less than 100 nM.

For `Cc1ccc(CNc2ccc3c(c2)Sc2cccc(-c4cc(N5CCOCC5)cc(=O)[nH]4)c2O3)nc1` [Example 4-8-13, 6-(8-(((5-Methylpyridin-2-yl)methyl)amino)phenoxathiin-4-yl)-4-morpholino pyridin-2(1H)-one], the IC50 on ATM was less than 0.1 µM. Also, the SER2 (concentration at which the radiation sensitivity-enhancement ratio reaches 2) in experiment [1] (Homo sapiens, NCI-H460, 120 h) lay within 100 to 500 nM.

Take `Cc1ccc(C(Nc2ccc3c(c2)Sc2cccc(-c4cc(N5CCOCC5)cc(=O)[nH]4)c2S3)C2CC(N(C)C)C2)nc1` (single isomer, unassigned) [Example 1-50-8, 6-(7-(((3-(Dimethylamino)cyclobutyl)(5-methylpyridin-2-yl)methyl)amino)thianthren-1-yl)-4-morpholino pyridin-2(1H)-one]: the IC50 on ATM was less than 0.1 µM. In experiment [1] (Homo sapiens, NCI-H460, 120 h), the SER2 (concentration at which the radiation sensitivity-enhancement ratio reaches 2) is less than 100 nM.
